NF-κB activation data for 1 molecule are collected here from patent publication US20090326259A1, “NF-Kappabeta Activation Inhibitor” (Tokyo University of Marine Science and Technology, priority 2006, published 2009).

This experiment relates to NF-κB. The experiment in a line: LPS-stimulated NF-κB activation in RAW264.7 murine macrophage (gel shift with biotin-labelled NF-κB consensus sequence). Type of experiment: cell-based. The note with it: RAW264.7, 1 μM compound 22 h, then 1 μg/ml LPS 2 h; FIG. 2. As to the method:
[Measurement of LPS-stimulated NF-κB activation in RAW264.7 murine macrophage strain] The murine macrophage RAW264.7 is preserved in DMEM containing 10% fetal bovine serum. After treatment in DMEM with 1 μM cycloartenyl ferulate (CAF) for 22 h, it is further stimulated for 2 h in 1 μg/ml lipopolysaccharide (LPS).
The nucleoprotein of RAW264.7 cell is extracted with Transfactor Extraction kit (BD Biosciences, USA), and then is bound with the following NF-κB consensus sequence of biotin-labeling reaction for 60 min in reaction solution consisting 100 mM HEPES (pH 7.6), 5 mM EDTA, 50 mM ammonium sulfate, 5 mM DTT, 150 mM KCl, 1% (v/v) Tween20 and 0.0001% poly (dI-dC) (Amersham Biosciences, USA).
Except these experimental groups, control group reacting with 90-fold unlabeled consensus sequence, along with supershift group using anti-p50 polyclonal antibody (Abcam, USA) and anti-p65 polyclonal antibody (Santa Cruz Biotechnology, INC., USA) are established to make comparison. […]
The peroxidase activity is detected with Immobilon Western Chemiluminescent HRP substrate (Millipore, USA) and the luminous intensity is quantified by Image J (National Institutes of Health, USA) as shown in FIG. 2. […]
(In EMSA bound probe runs differently from free probe, usually more slowly.)

For the molecule `COc1cc(/C=C/C(=O)O)ccc1O` [ferulic acid], the NF-κB activation entry is “barely inhibits”.
